US20230150977A1, “PYRIDAZINONE COMPOUNDS FOR THE TREATMENT OF NEUROMUSCULAR DISEASES” (Edgewise Therapeutics, Inc., priority 2020, published 2023)

Key:
[1] = test system: embryos from zebrafish model of DMD; settings: Li and Arner, PLoSONE, 2015; cited from earlier work
[2] = target: skeletal myofibrils (Rabbit Psoas) myosin ATPase; experiment: Skeletal Myofibril ATPase Assay; format: biochemical; settings: PK/LDH coupled, absorbance at 340 nm
Protocol: Overview: Myosin ATPase activity was assessed by using a coupled reaction system, in which ADP generated by the myosin ATPase function was coupled to the disappearance of NADH through the pyruvate kinase/lactate dehydrogenase (PK-LDH) system. Myosin ATPase activity produces ADP, which was used as a substrate for PK to produce pyruvate and regenerate ATP. The pyruvate was then used as a substrate by LDH to oxidize NADH to NAD+. The rate of the reaction was monitored through the time-dependent disappearance of NADH using absorbance at 340 nm. Inhibition of ATPase activity by the assayed compounds was indicated by a reduced rate of NADH loss, relative to vehicle-treated controls, over the experimental time window. To assess the selectivity of the assayed compounds for skeletal myofibrils, the compounds were counter-screened in cardiac myofibrils.
Materials: The following stock solutions and reagents were used in the Skeletal Myofibril ATPase Assay:
Stock Solutions of pCa buffer. Combine PIPES, CaCl2, and EGTA solutions with 70 mL of water. Adjust pH to 7.0 and bring final volume to 100 mL.
Buffer A & Buffer B. Buffers were stored on ice until use.
Skeletal Myofibril ATPase Assay Procedure: BSA, ATP, NADH, PEP, and DTT solutions were thawed at room temperature, then transferred to ice. Pellet-frozen myofibrils (approximately twice the required volume) were transferred into a sufficiently large tube and capped. Myofibrils were thawed by rolling in a water bath for approximately 15 min at room temperature and cooled on ice. Buffers A and B were prepared by adjusting volumes as necessary for required number of wells and stored on ice. 0.5 μL of the compounds to be assayed were added into wells of a 384-well plate. Buffers A and B were mixed by inversion immediately prior to use, then 25 μL of each was dispensed using a Multidrop dispenser (Buffer A first, then Buffer B). The absorbance within the wells was measured at 340 nm, using a kinetic protocol in which the wells are read every 1.5-2 min for 1 h. The reaction rate was qualitatively assessed by subtracting the minimum absorbance value from the maximum value for each well, using either the SoftMax Pro plate reader software or a spreadsheet program such as Excel. Using GraphPad Prism 8.0, the data was normalized, with 100% activity defined as the absorbance change in the 1% DMSO vehicle wells and 0% assigned to no change in absorbance over the course of the experiment. The normalized data were fit to a variable-slope four-parameter logistic model, constraining the bottom to be 0 or greater. Compounds of Table 1 to 3 were tested and results of the assay appear in Table 4 herein. A=IC50 is less than or equal to 10 μM; B=IC50 is greater than 10 μM and less than 100 μM; C=IC50 is greater than 100 μM.

| SMILES | IC50 [2] [µM] | protection of muscles from pathological muscle derangement [1] |
| --- | --- | --- |
| Cc1ccc(S(=O)(=O)NCc2ccccc2)cc1 [BTS, N-benzyl-p-tolyl-sulfonamide] | – | protect muscles from pathological muscle derangement |
| O=c1ccc(-c2cnc(OCC(F)(F)F)nc2)nn1CCc1cncc(F)c1 [Compound 9, 2-(2-(5-fluoropyridin-3-yl)ethyl)-6-(2-(2,2,2-trifluoroethoxy)pyrimidin-5-yl)pyridazin-3(2H)-one] | ≤ 10 | – |
| CC1CC1CCn1nc(-c2cnc(OCC(F)(F)F)nc2)ccc1=O (centres unmarked) [Compound 3, 2-(2-(2-methylcyclopropyl)ethyl)-6-(2-(2,2,2-trifluoroethoxy)pyrimidin-5-yl)pyridazin-3(2H)-one] | ≤ 10 | – |

Further lines, with some results ahead:

| IC50 [2] [µM] | SMILES | protection of muscles from pathological muscle derangement [1] |
| --- | --- | --- |
| > 100 | O=C(CCn1nc(-c2ccccc2)ccc1=O)NC1CCCCC1 [Compound 36, N-cyclohexyl-3-(6-oxo-3-phenylpyridazin-1(6H)-yl)propanamide] | – |
| 10 to 100 | CC(C)OCCn1nc(-c2ccc3c(c2)OCCCO3)ccc1=O [Compound 26, 6-(3,4-dihydro-2H-benzo[b][1,4]dioxepin-7-yl)-2-(2-isopropoxyethyl)pyridazin-3(2H)-one] | – |
